Test systems include MDA-MB-435; LOX IMVI; SF-295; RPMI-8226; A549; SN12C; IGROV-1; KM12; NCI/ADR-RES; UO-31; Hs-578T; UACC-62; HCT-116; HT-29; 786-0; NCI-H522; TK-10; DU-145; K562; ACHN.
Experiment in all cases: NCI-60 cell line screen, 48 h

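Five compound concentrations were applied to cells in 96-well plates for 48 hours; endpoints were derived by simple linear interpolation of the resulting dose-response curve. Abbreviation: GI50, concentration required for 50% inhibition of growth.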 Activity calls are given as the source filed them. Rule as the data show it: active = GI50 up to about 1.1 µM and inactive = higher. A value given as a limit tells only on which side of the number the result lay.

The record followed here is ChEMBL document CHEMBL1201862, “PubChem BioAssay data set” (2004).

Take `c1ccc(-c2sc(-c3ccccc3)c3c2C2CCC3C2)cc1`: the GI50 is 38.6 µM (inactive) with MDA-MB-435; 28.8 µM (inactive) with LOX IMVI; 35.1 µM (inactive) in the assay on SF-295; 16.1 µM (inactive) with RPMI-8226; 28.6 µM (inactive) with A549; 45.3 µM (inactive) in the assay on SN12C. In addition, the GI50 in the assay with IGROV-1 is 47.1 µM (inactive); in the assay on KM12, 30.6 µM (inactive); with NCI/ADR-RES, 29.8 µM (inactive); in the assay on UO-31, 16 µM (inactive); in the assay on Hs-578T, 20 µM (inactive); with UACC-62, 33.8 µM (inactive). Moreover, the GI50 in the assay with HCT-116 was 27 µM (inactive); in the assay with HT-29, 18.6 µM (inactive); in the assay on 786-0, 45.9 µM (inactive); with NCI-H522, 23.1 µM (inactive); in the assay with TK-10, 27 µM (inactive); with DU-145, > 100 µM (inactive). Also, the GI50 with K562 was 35.2 µM (inactive); in the assay with ACHN, 36.1 µM (inactive).
Take `Cc1cn([C@@H]2O[C@H](CO[Si](C)(C)C(C)(C)C)[C@]3(O[C@H]3C(=O)NO)[C@H]2O[Si](C)(C)C(C)(C)C)c(=O)[nH]c1=O`: the GI50 in the assay with MDA-MB-435 is 2.07 µM (inactive); in the assay on LOX IMVI it was 1.76 µM (inactive); with SF-295, 1.77 µM (inactive); in the assay on RPMI-8226, 1.18 µM (inactive); in the assay with A549, 1.82 µM (inactive); in the assay with SN12C it was 1.61 µM (inactive). Also, the GI50 in the assay with IGROV-1 was 1.71 µM (inactive); in the assay with KM12, 1.79 µM (inactive); with NCI/ADR-RES, 5.7 µM (inactive); in the assay with UO-31, 1.74 µM (inactive); with Hs-578T, 1.92 µM (inactive); with UACC-62, 1.82 µM (inactive). The GI50 in the assay with HCT-116 is 1.52 µM (inactive); in the assay with HT-29, 1.53 µM (inactive); in the assay on 786-0 it was 1.54 µM (inactive); in the assay with NCI-H522, 1.52 µM (inactive); in the assay on TK-10 it was 2.29 µM (inactive); with DU-145, 1.89 µM (inactive). Further, the GI50 is 2.47 µM (inactive) in the assay with K562 and 1.7 µM (inactive) in the assay with ACHN.
For the compound `O=C(O)c1cc(CC2Cc3cc4c(cc3C2=O)CCC4)cc2c1CCC2` (stereo not given), the GI50 was > 100 µM (inactive) with MDA-MB-435; 84.1 µM (inactive) in the assay with LOX IMVI; > 100 µM (inactive) in the assay with SF-295; 70.8 µM (inactive) in the assay on RPMI-8226; > 100 µM (inactive) in the assay with A549; > 100 µM (inactive) in the assay with SN12C. For the same compound, the GI50 is > 100 µM (inactive) with IGROV-1; 75.2 µM (inactive) in the assay on KM12; > 100 µM (inactive) in the assay with NCI/ADR-RES; > 100 µM (inactive) in the assay on UO-31; 48.1 µM (inactive) in the assay with Hs-578T; 43.2 µM (inactive) in the assay with UACC-62. In addition, the GI50 with HCT-116 is 72.1 µM (inactive); in the assay with HT-29, > 100 µM (inactive); in the assay with 786-0, > 100 µM (inactive); with NCI-H522, 90.2 µM (inactive); in the assay on TK-10, > 100 µM (inactive); with DU-145, > 100 µM (inactive). Besides, the GI50 with K562 was 40.9 µM (inactive); with ACHN, 61 µM (inactive).
Turning to `CC(C)(CO)NC1=C(Cl)C(=O)c2c(O)ccc(O)c2C1=O`, the GI50 in the assay with MDA-MB-435 is 1.15 µM (inactive); with LOX IMVI it was 0.45 µM (active); in the assay on SF-295, 1.7 µM (inactive); with RPMI-8226, 2.05 µM (inactive); with A549, 1.86 µM (inactive); with SN12C, 1.56 µM (inactive). Also, the GI50 was 1.58 µM (inactive) with IGROV-1; 1.43 µM (inactive) with KM12; 1.88 µM (inactive) with NCI/ADR-RES; 1.55 µM (inactive) in the assay on UO-31; 0.743 µM (active) with Hs-578T; 1.35 µM (inactive) in the assay with UACC-62. Moreover, the GI50 in the assay on HCT-116 was 1.57 µM (inactive); in the assay on HT-29 it was 1.31 µM (inactive); with 786-0, 1.46 µM (inactive); in the assay with NCI-H522 it was 0.316 µM (active); in the assay on TK-10 it was 1.88 µM (inactive); in the assay on DU-145 it was 1.9 µM (inactive). Besides, the GI50 in the assay on K562 was 0.104 µM (active); in the assay on ACHN it was 1.7 µM (inactive).
As to `O=C(O)c1c(CC(Cc2ccc3c(c2)CCCC3)C(=O)O)ccc2c1CCCC2` (stereo not given), the GI50 with MDA-MB-435, with LOX IMVI, in the assay on SF-295, in the assay on RPMI-8226, in the assay with A549 and in the assay on SN12C was > 100 µM (inactive) each time. Further, the GI50 with IGROV-1, in the assay with KM12, with NCI/ADR-RES, in the assay with UO-31, with Hs-578T and in the assay on UACC-62 was > 100 µM (inactive) each time. For the same compound, the GI50 in the assay on HCT-116, in the assay with HT-29, in the assay on 786-0, with NCI-H522, in the assay on TK-10 and with DU-145 was > 100 µM (inactive) each time. In addition, the GI50 in the assay on K562 and in the assay on ACHN was > 100 µM (inactive) each time.
As to `CN(CCc1ccccn1)c1ccc2c(c1)Cc1ccccc1-2`, the GI50 with MDA-MB-435 is 31 µM (inactive); with LOX IMVI it was 16.3 µM (inactive); in the assay on SF-295 it was 12.1 µM (inactive); in the assay on RPMI-8226 it was 14.1 µM (inactive); in the assay on A549, 13.6 µM (inactive); in the assay on SN12C, 33.8 µM (inactive). For the same compound, the GI50 with IGROV-1 was 16.1 µM (inactive); with KM12, 14.4 µM (inactive); in the assay on NCI/ADR-RES it was 26.9 µM (inactive); in the assay with UO-31, 38.2 µM (inactive); with Hs-578T, 4.54 µM (inactive); in the assay with UACC-62 it was 10.6 µM (inactive). Moreover, the GI50 with HCT-116 was 11.1 µM (inactive); in the assay on HT-29, 23.1 µM (inactive); in the assay on 786-0 it was 25.8 µM (inactive); in the assay on NCI-H522, 8.69 µM (inactive); in the assay on TK-10, 31.5 µM (inactive); with DU-145, 43.7 µM (inactive). Further, the GI50 with K562 is 9.31 µM (inactive); in the assay on ACHN, 22.5 µM (inactive).
Turning to `COc1ccc(N2C(=O)C(=O)N(c3ccccc3[N+](=O)[O-])C2=S)cc1`, the GI50 in the assay with MDA-MB-435 was 27.4 µM (inactive); in the assay on LOX IMVI it was 16.6 µM (inactive); in the assay with SF-295 it was 35.1 µM (inactive); with RPMI-8226, 30.5 µM (inactive); with A549 it was 38.5 µM (inactive); in the assay with SN12C, 37.4 µM (inactive). For the same compound, the GI50 was 34.8 µM (inactive) in the assay on IGROV-1; 22.3 µM (inactive) in the assay on KM12; 23.5 µM (inactive) in the assay with NCI/ADR-RES; 34 µM (inactive) in the assay on UO-31; 22.7 µM (inactive) in the assay on Hs-578T; 17.5 µM (inactive) in the assay on UACC-62. The GI50 in the assay on HCT-116 was 28.6 µM (inactive); in the assay with HT-29 it was 33.8 µM (inactive); in the assay with 786-0, 33 µM (inactive); in the assay on NCI-H522 it was 10.7 µM (inactive); in the assay on TK-10, 21.7 µM (inactive); in the assay on DU-145, 38.4 µM (inactive). For the same compound, the GI50 in the assay with K562 is 32.1 µM (inactive); in the assay on ACHN, 28.4 µM (inactive).
For `CCOC(=O)c1cc(C)nc2c1c(=O)n(-c1ccccc1)c(=O)n2CCCCN1CCN(c2ccccc2)CC1`, the GI50 with MDA-MB-435 is > 100 µM (inactive); in the assay on LOX IMVI, 61.1 µM (inactive); in the assay on SF-295, > 100 µM (inactive); in the assay on RPMI-8226, 15.7 µM (inactive); in the assay with A549 it was > 100 µM (inactive); in the assay with SN12C, 49.9 µM (inactive). Besides, the GI50 with IGROV-1 is > 100 µM (inactive); in the assay with KM12, 61.8 µM (inactive); with NCI/ADR-RES it was > 100 µM (inactive); in the assay with UO-31, 6.17 µM (inactive); in the assay with Hs-578T, > 100 µM (inactive); in the assay on UACC-62 it was 70.3 µM (inactive). Also, the GI50 with HCT-116 was > 100 µM (inactive); in the assay with HT-29, 36.6 µM (inactive); in the assay on 786-0 it was 73.1 µM (inactive); in the assay on NCI-H522, 87.1 µM (inactive); in the assay with TK-10, > 100 µM (inactive); in the assay on DU-145, > 100 µM (inactive). Further, the values for the GI50 with K562 and in the assay on ACHN were 24.9 µM (inactive) and 58.1 µM (inactive), respectively.
As to `C[C@]12CC[C@@H]3c4ccc(OP(=O)(O)O)cc4CC[C@H]3[C@@H]1CCC2=O`, the GI50 with MDA-MB-435 is 67.5 µM (inactive); with LOX IMVI, 95.9 µM (inactive); in the assay on SF-295, 71.8 µM (inactive); in the assay with RPMI-8226 it was 44.4 µM (inactive); in the assay with A549, 90.2 µM (inactive); in the assay on SN12C it was 70.1 µM (inactive). The GI50 was > 100 µM (inactive) in the assay with IGROV-1; 54.5 µM (inactive) with KM12; 56 µM (inactive) in the assay on NCI/ADR-RES; 80.7 µM (inactive) in the assay on UO-31; 41.3 µM (inactive) in the assay on Hs-578T; 66.2 µM (inactive) in the assay with UACC-62. Moreover, the GI50 in the assay on HCT-116 was 55.1 µM (inactive); in the assay on HT-29 it was 63.1 µM (inactive); with 786-0, > 100 µM (inactive); in the assay on NCI-H522 it was 33.4 µM (inactive); in the assay with TK-10 it was > 100 µM (inactive); with DU-145, > 100 µM (inactive). In addition, the GI50 with K562 was 46.3 µM (inactive); in the assay with ACHN, > 100 µM (inactive).
Turning to `Oc1cc(-c2cccc(Cl)c2)nc2ncccc12`, the GI50 was < 0.01 µM (active) in the assay with MDA-MB-435; 0.133 µM (active) in the assay with LOX IMVI; 0.0533 µM (active) in the assay on SF-295; 0.05 µM (active) in the assay on RPMI-8226; 0.126 µM (active) in the assay with A549; 0.141 µM (active) in the assay with SN12C. Besides, the GI50 was 0.0813 µM (active) in the assay on IGROV-1; 0.0515 µM (active) in the assay with KM12; 0.221 µM (active) in the assay with NCI/ADR-RES; 2.52 µM (inactive) in the assay on UO-31; 0.084 µM (active) with Hs-578T; 0.0577 µM (active) in the assay on UACC-62. Moreover, the GI50 is 0.0312 µM (active) in the assay on HCT-116; 0.0405 µM (active) with HT-29; 0.249 µM (active) with 786-0; 0.0474 µM (active) in the assay on NCI-H522; 24.3 µM (inactive) with TK-10; 0.644 µM (active) with DU-145. Also, the values for the GI50 with K562 and in the assay on ACHN were 0.0208 µM (active) and 3.27 µM (inactive), respectively.
